In PMC5036617 (Toxicological Sciences, 2016):
Read-outs that look alike come from different tables or passages of the source.

Legend:
HepG2 cells [1] = assay: Cellular ATP content of HepG2 cells in glucose or galactose medium (ATP bioluminescent assay); type: cell-based; details: 2 h; for decrease in ATP content in galactose medium compared with glucose medium: up to 300 µM; for EC50: Homo sapiens, concentration reducing cellular ATP content by 50%; for EC50ATPglu/EC50ATPgal: ratio ≥ 2 identifies a mitochondrial liability
Protocol: Metabolic switching of cells was performed based on work previously described by ([[…] et al., 2015]). Briefly, 24 h prior to metabolic switch, HepG2 cells were collected by trypsinization and seeded on a collagen-coated flat-bottomed 96-well plate (20 000 cells/50 μl/well) and incubated (37°C, 5% CO2) overnight. […] Flutamide, 2-hydroxyflutamide and bicalutamide stock solutions were prepared in DMSO and diluted further in the appropriate medium. Compounds (50 μl) were then added to each well and cells were incubated for 2 h (37 °C, 5% CO2). All assays used ≤ 0.5% DMSO as a vehicle control. […] LDH content of the cells and supernatant was assessed using a cytotoxicity detection kit according to the manufacturer's instructions. ATP content was assessed using an ATP bioluminescent assay according to the manufacturer's instructions. Briefly, 10 μl of cell lysate or ATP standard curve solutions were added to a white-walled 96-well plate before addition of 40 μl ATP assay mix. Protein content of all wells was then assessed using a BCA assay applied to 10 μl of cell lysate and standards. LDH (490 nm), BCA (570 nm), and ATP assay luminescence were then measured using a plate reader (Varioskan, Thermo Scientific). ATP content readings were normalized to protein content. Experiments were conducted in a minimum of triplicate to ensure the reliability of single values. EC50 data were determined by nonlinear regression analysis using GraphPad Prism 5.0. Normality was assessed using a Shapiro-Wilk statistical test. Statistical significance was determined by an unpaired t-test for parametric data and a Mann-Whitney U test for non-parametric data using StatsDirect 2.7.9. P < .05 was taken as showing a significant difference.

[2] = tested on: mitochondrial respiratory complex I; assay: In situ respiratory complex assay in permeabilized cells, complex I; type: cell-based; details: uncoupled, permeabilized HepG2 cells, 10–250 µM
[3] = tested on: mitochondrial respiratory complex II; assay: In situ respiratory complex assay in permeabilized cells, complex II; type: cell-based; details: uncoupled, permeabilized HepG2 cells, 10–250 µM
HepG2 cells [4] = assay: Assessment of NAD+/NADH ratio; type: cell-based; details: 2 h, glucose medium, 30–500 µM
Protocol: HepG2 cells were collected by trypsinization and seeded on a 24-well plate (450 000 cells/500 µl/well) and incubated overnight in glucose medium (37 °C, 5% CO2). […] NAD^+ and NADH concentrations were measured in lysates using a NAD^+/NADH ratio assay kit according to the manufacturer’s instructions.

[5] = tested on: mitochondrial respiratory complex III; assay: Complex III-linked respiration assay in permeabilized cells; type: cell-based; details: permeabilized HepG2 cells, complex III-stimulated maximal respiration, 10–250 µM
Protocol: (§1) Culture medium was replaced with MAS buffer containing constituents to stimulate oxygen consumption via complex I (as previously without FCCP), complex II (ADP; 4.6 mM, succinate; 20 mM, rotenone; 1 µM, BSA; 0.2% w/v, PMP; 1 nM), or complex III (ADP; 4.6 mM, duroquinol; 500 μM, rotenone; 1 μM, malonic acid; 40 μM, BSA; 0.2% w/v, PMP; 1 nM) dependent on the respiratory complex of interest. […] Changes in complex II activity were also assessed at lower compound concentrations; 2–30 μM (Supplementary Figure S1). Complex I, II, and III activity were defined by the change in complex I, II, or III-stimulated maximal respiration respectively compared with vehicle control.
(§2) Following completion of OCR assays, medium was removed from all wells and 20 µl of somatic cell ATP releasing agent was added to each well before shaking for 1 min and transfer of 10 µl of lysate to a 96-well plate and performance of a BCA assay according to the manufacturer’s instructions. Protein content per well was used to normalize OCR.

bile salt export pump = tested on: bile salt export pump; set-up: method as in Kostrubsky et al., 2007; details: via bile salt export pump inhibition; ref Kostrubsky et al., 2007; read-out: IC50 inhibition of taurocholate efflux; cited from earlier work
HepG2 cells [6] = assay: Assessment of superoxide level (mitoSOX red); type: cell-based; details: 2 h; for concentration significantly increasing cellular superoxide: HepG2 cells, glucose medium, 15–500 µM; for superoxide level in galactose media: acutely galactose-conditioned HepG2 cells, up to 500 µM
Protocol: HepG2 cells were collected by trypsinization and seeded on a 24-well plate (150 000 cells/500 µl/well) and incubated overnight in glucose medium (37°C, 5% CO2). […] Protein content per well was determined using a BCA assay (as described earlier) and was used to normalize superoxide levels.

[7] = tested on: mitochondrial respiratory complex I; assay: Complex I-linked respiration assay in permeabilized cells; type: cell-based; details: for concentration inducing a significant reduction in complex I activity: permeabilized HepG2 cells, complex I-stimulated maximal respiration vs vehicle control, 10–250 µM
Protocol: as §1, §2

[8] = tested on: mitochondrial respiratory complex II; assay: Complex II-linked respiration assay in permeabilized cells; type: cell-based; details: permeabilized HepG2 cells; for complex II activity: complex II-stimulated maximal respiration vs vehicle control, 10–250 µM
Protocol: as §1, §2

Complex V (ATP synthase) = assay: Complex V assay in permeabilized cells; type: cell-based; details: permeabilized HepG2 cells, OCR change coupled vs uncoupled cells, 10–250 µM
Protocol: The assay consisted of a basal OCR measurement of 2 cycles of mix (30 s), wait (30 s), and measure (2 min) followed by MAS or FCCP injection (0.5 µM) and 2 measurement cycles. MAS-injected cells remain coupled whereas FCCP-injected cells become uncoupled meaning Complex V (ATP synthase) inhibition should not result in a change in OCR. […] FIG. 4 Representative complex V assay trace. Complex V assays consisted of cells in a solution containing substrates for complex IV before a series of compound injections into the cell culture microplate. FCCP (OXPHOS uncoupler) (Trace A) or MAS buffer (Traces B and C) was first injected, followed by 2 cycles of measurements. Flutamide, 2-hydroxyflutamide, oligomycin (positive control), or vehicle control was then injected into both the uncoupled (FCCP-treated) and coupled (MAS-treated) cells. […] Each measurement cycle was a total of 3 min. Following completion of OCR assays, medium was removed from all wells and 20 µl of somatic cell ATP releasing agent was added to each well before shaking for 1 min and transfer of 10 µl of lysate to a 96-well plate and performance of a BCA assay according to the manufacturer’s instructions. Protein content per well was used to normalize OCR.

[9] = cited from earlier work; for half-life: after flutamide administration, ref Kostrubsky et al., 2007; for Cmax: plasma, ref Schulz et al., 1988, read-out: maximum plasma concentration (Cmax)
[10] = tested on: mitochondrial respiratory complex IV; assay: In situ respiratory complex assay in permeabilized cells, complex IV; type: cell-based; details: uncoupled, permeabilized HepG2 cells, 10–250 µM
[11] = galactose medium, read-out: EC50ATP (μM) Galactose
[12] = glucose medium, read-out: EC50ATP (μM) Glucose

| Compound | decrease in ATP content in galactose medium compared with glucose medium (HepG2 cells [1]) | EC50 (HepG2 cells [1]; [11]) [µM] | EC50 (HepG2 cells [1]; [12]) [µM] | complex I activity (response to rotenone) [2] | complex II activity (response to succinate) [3] | NAD+/NADH ratio (HepG2 cells [4]) | concentration significantly decreasing NAD+/NADH ratio (HepG2 cells [4]) [µM] | complex III activity [5] | IC50 (bile salt export pump) [µM] | concentration significantly increasing cellular superoxide (HepG2 cells [6]) [µM] | superoxide level in galactose media (HepG2 cells [6]) | concentration inducing a significant reduction in complex I activity [7] [µM] | complex II activity [8] | half-life [9] [h] | complex IV activity [10] | further results |
| --- | --- | --- | --- | --- | --- | --- | --- | --- | --- | --- | --- | --- | --- | --- | --- | --- |
| CC(C)(O)C(=O)Nc1ccc([N+](=O)[O-])c(C(F)(F)F)c1 [2-hydroxyflutamide] | significantly more in the galactose medium | 48.5 | 267 | significant reduction in complex I activity | significantly reduced response | significantly decreased | ≥ 100 | no significant inhibition | 110 | ≥ 30 | significant increase | ≥ 30 | significant reduction | 9.6 | Neither compound appeared to have a significant impact | concentration inducing a significant decline in complex II activity ([8]; complex II-stimulated maximal respiration, 2–30 and 10–250 µM): ≥ 10 µM; concentration inducing a significant reduction in complex V activity (Complex V (ATP synthase)): ≥ 125 µM; Cmax ([9]; metabolite after single 250 mg dose of flutamide): 4400 nM |
| CC(C)C(=O)Nc1ccc([N+](=O)[O-])c(C(F)(F)F)c1 [Flutamide] | significantly more in the galactose medium | 43.9 | 255 | significant reduction in complex I activity | Only 2-hydroxyflutamide induced a significantly reduced response | significantly decreased | ≥ 100 | no significant inhibition | 75 | ≥ 30 | significant increase | ≥ 30 | only 2-hydroxyflutamide and not flutamide induced a significant reduction | 7.8 | Neither compound appeared to have a significant impact | EC50ATPglu/EC50ATPgal (HepG2 cells [1]): 5.82 (0.03); EC50ATPglu/EC50ATPgal (HepG2 cells [1]; listed as flutamide): ≥ 2; OCR upon compound injection, complex I assay ([7]; permeabilised HepG2 cells, up to 250 µM): immediate concentration-dependent reduction in OCR; complex V activity (Complex V (ATP synthase)): this was not the case for flutamide; Cmax ([9]; single 250 mg dose of flutamide): 72.2 nM; parent drug as share of detectable compound in the plasma following administration ([9]; ref Radwanski et al., 1989): 2.5% |
